In one assay the test system is S. epidermidis 12228. It counts as cell-based, Staphylococcus epidermidis. As to the method:
(§1) The MIC values of the nano‐short peptides were determined according to standard protocols.^[ [63] ^] Bacterial strains were revived from cryopreservation and cultured in Mueller–Hinton broth (MHB) to logarithmic growth phase, then diluted to a final density of 0.5–1 × 10⁶ CFU mL^−1. Serial dilutions of the nano‐short peptides were prepared in 0.2% bovine serum albumin (BSA) using a 96‐well plate format. Equal volumes of peptide solutions and bacterial suspensions were combined and incubated at 37 °C for 20–22 h. Bacterial growth was assessed by measuring absorbance at 492 nm, with MHB alone (negative control) and untreated bacterial suspension (positive control) included for reference.

The next assay relates to S. aureus ATCC 29213. The assay is described as follows: Cell wall permeability, NPN. The class given is cell-based, Staphylococcus aureus. As to conditions: n = 3. As to the method: The NPN fluorescent probe was used to assess the permeability of cell wall.^[ [64] ^] A logarithmic phase culture of S. aureus ATCC 29213 bacterial solution was diluted to OD600 = 0.2 in a 5 × 10^−3 M HEPES buffer (pH = 7.4 with 5 × 10^−3 M glucose). Following the addition of NPN (final concentration: 10 × 10^−6 M), the mixture was incubated for 30 min in the dark. Subsequently, the bacterial suspension was mixed with an equal volume of nano‐short peptides solution at different concentrations. […] Fluorescence intensity was measured (excitation λ = 350 nm, emission λ = 420 nm) using a microplate reader. The percentage of outer membrane permeability was calculated as: Permeability% = [(F treated – F negative control)/(F positive control – F negative control)] × 100%.

Assay [1] concerns E. coli ATCC 25922. The assay is described as follows: Respiratory chain dehydrogenase activity, RT reduction. It counts as cell-based, Escherichia coli. The following applies: 16 × 10^−6 M, E. coli ATCC 25922, 1.5 h, 37 °C; n = 3. As for the experimental part:
The inhibitory effects of nano‐short peptides on RCD activity in bacteria were evaluated using an RT reduction assay.^[ [58] ^] Logarithmic growth stage E. coli ATCC 25922 and S. aureus ATCC 29213 bacterial solutions were diluted to OD600 = 0.4 in MHB liquid medium. A mixed solution was prepared by combining RT (1 mg mL^−1), glucose (100 × 10^−3 M), and Tris‐HCl buffer (50 × 10^−3 M, pH 8.6) in equal volumes (1:1:1). In 96‐well microplates, serial dilutions of nano‐short peptides were prepared using the mixed solution, followed by addition of an equal volume of bacterial suspension. Following incubation at 37 °C for 1.5 h, the absorbance at 492 nm was measured using a microplate reader, with untreated bacterial suspensions serving as controls.

Another assay has as its system E. faecalis 29212. It counts as cell-based, Enterococcus faecalis. As to the method:
as §1

For the next assay, the system named is S. pullorum C7913. It counts as cell-based. As to the method:
as §1

Assay [2] is described as follows: LTA binding, BODIPY-TR-cadaverine displacement. The following applies: BC displacement, n = 3. As to the method: The binding ability of nano‐short peptides to LPS and LTA was evaluated using a BODIPY‐TR‐cadaverine (BC) displacement assay.^[ [59] ^] Test solutions containing LPS or LTA (50 µg mL^−1) were pre‐incubated with BC dye (5 µg mL^−1) for 4 h in the dark. Peptide solutions at varying concentrations were then mixed with the LPS or LTA, polymyxin B (final concentration 10 µg mL^−1) was used as a positive control, and LPS or LTA mixed with dye solution was used as a negative control. The fluorescence intensity (excitation λ = 580 nm, emission λ = 620 nm) was measured. %ΔF (au) = [(F treated – F negative control)/(F positive control – F negative control)] × 100%.

The subject of another assay is MRSA 43300. The class given is cell-based, Methicillin-Resistant Staphylococcus aureus. As for the experimental part:
as §1

The test system of another assay is E. coli 25922. It counts as cell-based, Escherichia coli. As for the experimental part: as §1
The subject of another assay is E. coli 078. It counts as cell-based, Escherichia coli. As to the method:
as §1

The test system of another assay is E. coli UB1005. The class given is cell-based, Escherichia coli. As for the experimental part:
as §1

The subject of assay [3] is E. coli ATCC 25922. The assay is described as follows: Outer membrane permeability, NPN. It counts as cell-based, Escherichia coli. As to conditions: n = 3. As for the experimental part:
The NPN fluorescent probe was used to assess the permeability of the outer membrane.^[ [29] ^] A logarithmic phase culture of E. coli ATCC 25922 bacterial solution was diluted to OD600 = 0.2 in a 5 × 10^−3 M HEPES buffer (pH = 7.4 with 5 × 10^−3 M glucose). Following the addition of NPN (final concentration: 10 × 10^−6 M), the mixture was incubated for 30 min in the dark. Subsequently, the bacterial suspension was mixed with an equal volume of nano‐short peptides solution at different concentrations. Polymyxin B (10 µg mL^−1) was used as a positive control, while an untreated bacterial dilution served as the negative control. Fluorescence intensity was measured (excitation λ = 350 nm, emission λ = 420 nm) using a microplate reader. The percentage of outer membrane permeability was calculated as: Permeability% = [(F treated – F negative control)/(F positive control – F negative control)] × 100%.

Assay [4] relates to E. coli ATCC 25922. The assay is described as follows: ROS generation, DCFH-DA. The following applies: 16 × 10^−6 M, E. coli ATCC 25922, DCFH-DA, 1 h; n = 3. The class given is cell-based, Escherichia coli. As to the method:
ROS accumulation levels were assessed by the fluorescent probe DCFH‐DA.^[ [63] ^] Logarithmic growth stage E. coli ATCC 25922 and S. aureus ATCC 29213 bacterial solutions were diluted to OD600 = 0.4 in PBS (pH = 7.4, 10 × 10^−3 M), followed by incubation with DCFH‐DA final concentration of 10 × 10^−6 M) for 30 min at 37 °C. Subsequently, the bacterial suspensions were then mixed with different concentrations of nano‐short peptides dilutions in equal volumes in a 96‐well plate and continued to incubate for 1 h (37 °C). Finally, the fluorescence intensity was measured using a microplate reader (excitation λ = 488 nm, emission λ = 525 nm).

A further assay concerns P. aeruginosa PAO1. The class given is cell-based, Pseudomonas aeruginosa. As to the method: as §1
Another assay deals with P. aeruginosa 27853. It counts as cell-based, Pseudomonas aeruginosa. As to the method:
as §1

In brackets after ≈: the same amount, converted by molar mass. Non-standard residues stand in square brackets, D forms with d. Residues, ends and D or L forms follow the SMILES beside them. ξ: configuration not given here. ξAhp(2) = CCCCCC(N)C(=O)O

Turning to `N=C(N)NCCC[C@H](NC(=O)[C@@H](CCCNC(=N)N)NC(=O)[C@H](Cc1cccc2ccccc12)NC(=O)[C@H](Cc1cccc2ccccc12)NC(=O)[C@H](Cc1cccc2ccccc12)NC(=O)[C@@H](N)Cc1cccc2ccccc12)C(=O)N[C@@H](CCCNC(=N)N)C(=O)N1CCC[C@H]1C(=O)O` (stereo in doubt) [Peptide N4], the “MIC, S. epidermidis 12228” value in the assay on S. epidermidis 12228 is 4 µM (≈ 5.49 µg/mL). Besides, the “cell wall permeabilization, ciprofloxacin as the reference” value in the assay with S. aureus ATCC 29213 (8 × 10^−6 M) came to 48.48%; with S. aureus ATCC 29213 (16 × 10^−6 M) it was 110.54%. The “RCD activity reduced to” value in the assay on E. coli ATCC 25922 [1] is on record as 60.10%. In addition, the “MIC, E. faecalis 29212” value in the assay on E. faecalis 29212 came out at 4 µM (≈ 5.49 µg/mL). Also, the “MIC, S. pullorum C7913” value against S. pullorum C7913 is 4 µM (≈ 5.49 µg/mL). The “LTA binding capacity, % of the antibiotic control” value in [2] (8 × 10^−6 M) came out at 65.60%; in assay [2] (16 × 10^−6 M), 73.08%. Also, the “MIC, MRSA 43300” value with MRSA 43300 was determined as 4 µM (≈ 5.49 µg/mL). Moreover, the “MIC, E. coli 25922” value against E. coli 25922 is 8 µM (≈ 11 µg/mL). In addition, the “MIC, E. coli 078” value against E. coli 078 worked out at 8 µM (≈ 11 µg/mL). Also, the “MIC, E. coli UB1005” value with E. coli UB1005 was found to be 4 µM (≈ 5.49 µg/mL). Moreover, the “outer membrane disruption compared to polymyxin B” value came to 92.06% in the assay on E. coli ATCC 25922 [3] (8 × 10^−6 M) and 108.41% in the assay with E. coli ATCC 25922 [3] (16 × 10^−6 M). Also, the “increase of ROS content vs untreated bacteria” value in the assay on E. coli ATCC 25922 [4] was found to be 2.26 fold. Also, the “MIC, P. aeruginosa PAO1” value with P. aeruginosa PAO1 stood at 4 µM (≈ 5.49 µg/mL). Also, in the assay with P. aeruginosa 27853, the “MIC, P. aeruginosa 27853” value was found to be 8 µM (≈ 11 µg/mL).

With `CCCCCC(N)C(=O)NC(CCCCC)C(=O)NC(CCCCC)C(=O)NC(CCCCC)C(=O)N[C@H](CCCNC(=N)N)C(=O)N[C@@H](CCCNC(=N)N)C(=O)N[C@@H](CCCNC(=N)N)C(=O)N1CCC[C@H]1C(=O)O` (stereo partly shown) [Peptide B4] (H-[ξAhp(2)][ξAhp(2)][ξAhp(2)][ξAhp(2)][dR]RRP-OH; N-terminus assumed), the “MIC, S. epidermidis 12228” value against S. epidermidis 12228 stood at 32 µM (≈ 35 µg/mL). The “cell wall permeabilization, ciprofloxacin as the reference” value in the assay on S. aureus ATCC 29213 (8 × 10^−6 M) is reported as 19.49%; in the assay with S. aureus ATCC 29213 (16 × 10^−6 M), 37.80%. In addition, the “RCD activity reduced to” value in the assay on E. coli ATCC 25922 [1] came out at 70.75%. For the same compound, the “MIC, E. faecalis 29212” value against E. faecalis 29212 turned out to be 32 µM (≈ 35 µg/mL). The “MIC, S. pullorum C7913” value against S. pullorum C7913 is 16 µM (≈ 17.5 µg/mL). For the same compound, the entries for the “LTA binding capacity, % of the antibiotic control” value in [2] (8 × 10^−6 M) and in [2] (16 × 10^−6 M) were 85.77% and 96.79%, respectively. Further, the “MIC, MRSA 43300” value in the assay with MRSA 43300 stood at 16 µM (≈ 17.5 µg/mL). Besides, the “MIC, E. coli 25922” value with E. coli 25922 is 16 µM (≈ 17.5 µg/mL). The “MIC, E. coli 078” value in the assay with E. coli 078 came to 16 µM (≈ 17.5 µg/mL). In addition, the “MIC, E. coli UB1005” value against E. coli UB1005 came to 8 µM (≈ 8.74 µg/mL). Besides, the “outer membrane disruption compared to polymyxin B” value in the assay with E. coli ATCC 25922 [3] (8 × 10^−6 M) is recorded as 37.37%; in the assay with E. coli ATCC 25922 [3] (16 × 10^−6 M), 57.94%. Further, the “increase of ROS content vs untreated bacteria” value in the assay with E. coli ATCC 25922 [4] stood at 1.51 fold. For the same compound, the “MIC, P. aeruginosa PAO1” value against P. aeruginosa PAO1 came out at 256 µM (≈ 280 µg/mL). For the same compound, in the assay with P. aeruginosa 27853, the “MIC, P. aeruginosa 27853” value is 16 µM (≈ 17.5 µg/mL).
